Results as given in patent US12162858B2, “Quinoline derivatives as inhibitors of AXL/MER RTK and CSF1R” (QURIENT CO., LTD., priority 2018, dated 2024).
pIC50: −log10 of the molar value.

What was measured:
CSF1R = CSF1R (Homo sapiens, UniProt P07333); assay: Cellular CSF1R inhibition ELISA (p-CSF1R, M-CSF-induced) using THP-1 cells; format: cell-based; set-up: THP-1 cells act as a model for human monocytes; endogenous in cells; host or cells: THP-1
Text: The normal proto-oncogene c-fms encodes the macrophage growth factor (M-CSF, also known as CSF1) receptor involved in growth, survival, and differentiation along the monocyte-macrophage lineage. THP-1 cells act as a model for human monocytes. It confirms that an increased phosphorylation of CSF1R (p-CSF1R) can be observed, when induced by CSF1R ligand, CSF1.
The THP-1 cells should be maintained from 5×10^5 to 1×10^6 cells/ml in the cell culture flask. After centrifugation, the supernatant is aspirated. The cell pellet is re-suspended with pre-warmed growth medium (RPMI1640, 10% FBS, 0.05 mM 2-Mercaptoethanol) and cells are separated by pipetting 6 times up and down with a 10 ml serological pipette. The cell suspension has to be diluted to a final concentration of 2×10^5 cells per 80 μl with pre-warmed growth medium. 80 μl of cell suspension is added to all wells of plates. Cell-plates are incubated at 37° C./5% CO2. Dissolve compound in 100% DMSO to make 10 mM stock solutions (Aliquots stored in the Nitrogen Cabinet). Dilute 10 mM compounds solutions for 2-fold in 100% DMSO to get 5 mM solutions (10 μl+10 μl DMSO), and then make a 3-fold serial dilution (10 μl+20 μl DMSO) for 10 doses. For reference compounds: Dilute 10 mM compounds solutions for 20-fold in 100% DMSO to get 0.5 mM solutions (2 μl+38 μl DMSO), and then make a 3-fold serial dilution (10 μl+20 μl DMSO) for 10 doses. Transfer 2 μl diluted compounds to 198 μl medium to get solution of 50 μM concentration at top point for compounds and 5 μM for reference compounds. Then transfer 20 μl cpd solution into assay plate (Duplicate wells). The plate is incubated at 37° C./5% CO2 for 24 h. The final concentration of DMSO in all wells is […]. Reconstitute human M-CSF at 50 μg/ml in sterile water. (Aliquots stored in −80° C.). 1:1000 dilute human M-CSF by fresh medium to 50 ng/ml. After 24 h compounds treatment, transfer 25 μl diluted human M-CSF (50 ng/ml) to cell plate according to the plate map. The final concentration of human M-CSF in all wells is 10 ng/ml.
The plates is incubated at 37° C./5% CO2 for 5 min. In the beginning the appropriate amount of lysis buffer complete (100 μL/well) is prepared and stored on ice. After 5 min human M-CSF stimulation, wash plates once with 300 μL ice cold PBS. Then 100 μl lysis buffer is added to each well. The plate is shacked for 40 min at 4° C. Plates can now be stored at −20° C. After equilibrate the micro-well strips at room temperature, break off the required number of micro-wells. Place the micro-wells in the strip holder. Unused micro-wells must be resealed and stored at 4° C. immediately. Add 90 μl of cell lysate to the appropriate well. Seal with tape and press firmly onto top of micro-wells. Incubate the plate for 2 h at 37° C. Gently remove the tape and wash wells 4 times with 1× Wash Buffer, 200 μl each time for each well. Add 100 μl of reconstituted Detection Antibody (green color) to each well. Seal with tape and incubate the plate at 37° C. for 1 h. Repeat wash procedure. Add 100 μl of reconstituted HRP-Linked secondary antibody to each well. Seal with tape and incubate the plate for 30 min at 37° C. Repeat wash procedure. Add 100 μl of TMB Substrate to each well. Seal with tape and incubate the plate for 10 min at 37° C. or 30 min at 25° C. Calculations and Formulas: The following calculations and formulas are used for data analysis using XL Fit software: The curve fitting was made using the Sigmoidal Dose-Response Model (Fit model, 205).

CSF1R (M-NFS-60 cells) = assay: Cell Titer-Glo viability assay using M-NFS-60 cells; format: cell-based; details: Mus musculus, read-out: Cellular CSF1R activity by M-NFS-60 viability assay (IC50 activity range)
Procedure: M-NFS-60 cells were cultured in RPMI-1640 medium containing 10% FBS, 0.05 mM 2-Mercaptoethanol, penicillin (100 U/ml)/streptomycin ([…]) and supplemented with 62 ng/ml recombinant human M-CSF at 37° C./5% CO2. Aliquots of the cells were seeded into a 96-well plate (2×10^5 cells in 100 μl/well) and then incubated at 37° C./5% CO2 1 h. Dissolve compound in 100% DMSO to make 10 mM stock solutions (Aliquots stored in the Nitrogen Cabinet). Dilute 10 mM compounds solutions for 2-fold in 100% DMSO to get 5 mM solutions (10 μl+10 μl DMSO), and then make a 3-fold serial dilution (10 μl+20 μl DMSO) for 10 doses. For reference compounds: Dilute 10 mM compounds solutions for 20-fold in 100% DMSO to get 0.5 mM solutions (2 μl+38 μl DMSO), and then make a 3-fold serial dilution (10 μl+20 μl DMSO) for 8 doses. The 96-well plate was equilibrated at room temperature for 30 min. 50 μl of CellTiter-Glo® Reagent added to each well and mixed for 2 min on an orbital shaker to induce cell lysis. The 96-well plate was incubated at room temperature for 10 min to stabilize luminescent signal. Luminescent was measured […] by EnVison plate reader. Calculations and Formulas: The following calculations and formulas are used for data analysis using XL Fit software: The curve fitting was made using the Sigmoidal Dose-Response Model (Fit model, 205).

Chain of CSF1R (P07333 20-972): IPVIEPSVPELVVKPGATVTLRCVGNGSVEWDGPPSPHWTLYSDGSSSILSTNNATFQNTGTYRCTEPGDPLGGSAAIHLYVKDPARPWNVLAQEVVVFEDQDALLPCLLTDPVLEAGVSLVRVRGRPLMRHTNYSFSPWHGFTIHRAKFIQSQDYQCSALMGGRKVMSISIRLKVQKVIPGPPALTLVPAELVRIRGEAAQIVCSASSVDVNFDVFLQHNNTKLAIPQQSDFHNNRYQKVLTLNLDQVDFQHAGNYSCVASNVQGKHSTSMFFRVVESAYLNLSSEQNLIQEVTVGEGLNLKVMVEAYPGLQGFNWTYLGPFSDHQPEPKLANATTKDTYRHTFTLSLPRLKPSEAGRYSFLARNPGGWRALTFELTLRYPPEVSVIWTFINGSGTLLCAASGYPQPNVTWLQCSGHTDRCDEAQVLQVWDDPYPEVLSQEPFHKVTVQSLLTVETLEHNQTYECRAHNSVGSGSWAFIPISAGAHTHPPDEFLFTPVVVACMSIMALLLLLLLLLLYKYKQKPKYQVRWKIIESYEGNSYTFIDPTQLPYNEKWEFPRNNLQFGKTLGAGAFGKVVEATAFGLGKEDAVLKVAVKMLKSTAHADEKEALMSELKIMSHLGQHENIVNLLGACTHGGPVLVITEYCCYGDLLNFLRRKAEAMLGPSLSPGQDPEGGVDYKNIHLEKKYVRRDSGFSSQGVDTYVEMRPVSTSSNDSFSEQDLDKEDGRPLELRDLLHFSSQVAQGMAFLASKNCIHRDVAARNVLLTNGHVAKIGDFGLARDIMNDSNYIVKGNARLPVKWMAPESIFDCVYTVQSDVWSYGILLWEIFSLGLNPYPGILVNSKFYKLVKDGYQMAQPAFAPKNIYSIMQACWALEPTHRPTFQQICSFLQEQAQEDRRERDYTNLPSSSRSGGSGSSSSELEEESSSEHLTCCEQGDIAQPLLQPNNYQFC

| SMILES | pIC50 (CSF1R) | pIC50 (CSF1R (M-NFS-60 cells)) |
| --- | --- | --- |
| COc1cc2nccc(Oc3ccc(NC(=O)c4nn(C5CC5)cc4OCC4CNC4)nc3)c2cc1OC [Compound 144] | ≤ 6.00 | ≤ 5.00 |
| COc1cc2nccc(Oc3ccc(NC(=O)c4nn(C5CC5)cc4NCC(F)(F)F)nc3)c2cc1OC [Compound 145] | > 6.30 | > 6.00 |
| CNCCn1cc(OCC(F)(F)F)c(C(=O)Nc2ccc(Oc3ccnc4cc(OC)c(OC)cc34)nc2)n1 [Compound 137] | ≤ 6.00 | 5.00 to 6.00 |
| COc1cc2nccc(Oc3ccc(NC(=O)c4nn(C5CC5)cc4NCCC(F)(F)F)nn3)c2cc1OC [Compound 146] | ≤ 6.00 | 5.00 to 6.00 |
| COc1cc2nccc(Oc3ccc(NC(=O)c4nn(CC5COC5)cc4OCC(F)(F)F)cn3)c2cc1OC [Compound 134] | ≤ 6.00 | ≤ 5.00 |
| COc1cc2nccc(Oc3ccc(NC(=O)c4nn(C)cc4OCC(F)(F)F)nn3)c2cc1OC [Compound 102] | > 6.30 | 5.00 to 6.00 |
| COc1cc2nccc(Oc3ccc(NC(=O)c4nn(CCOC5CC5)cc4OCC(F)(F)F)cc3)c2cc1OC [Compound 118] | 6.00 to 6.30 | 5.00 to 6.00 |
| COCCn1cc(OCC(F)(F)F)c(C(=O)Nc2ccc(Oc3ccnc4cc(OC)c(OC)cc34)cn2)n1 [Compound 10] | > 6.30 | > 6.00 |
| COc1cc2nccc(Oc3ccc(NC(=O)c4nn(C5CC5)cc4OCC(F)F)nn3)c2cc1OC [Compound 162] | > 6.30 | 5.00 to 6.00 |
| CNCCn1cc(OCC(F)(F)F)c(C(=O)Nc2ccc(Oc3ccnc4cc(OC)c(OC)cc34)c(F)c2)n1 [Compound 155] | ≤ 6.00 | 5.00 to 6.00 |
| COCCOc1cn(C2CC2)nc1C(=O)Nc1ccc(Oc2ccnc3cc(OC)c(OC)cc23)cn1 [Compound 107] | > 6.30 | 5.00 to 6.00 |
| COc1cc2nccc(Oc3ccc(NC(=O)c4nn(C5CCN(C)C5)cc4OCC(F)(F)F)cc3F)c2cc1OC (stereo not drawn) [Compound 96] | ≤ 6.00 | 5.00 to 6.00 |
| COc1cc2nccc(Oc3ccc(NC(=O)c4nn(CC(C)C)cc4OCC(F)(F)F)nn3)c2cc1OC [Compound 124] | 6.00 to 6.30 | 5.00 to 6.00 |
| COCCn1cc(OCC(F)(F)F)c(C(=O)Nc2ccc(Oc3ccnc4cc(OC)c(OC)cc34)nn2)n1 [Compound 126] | ≤ 6.00 | 5.00 to 6.00 |
| COc1cc2nccc(Oc3ccc(NC(=O)c4nn(CC(C)O)cc4OCC(F)(F)F)cn3)c2cc1OC (stereo not drawn) [Compound 136] | ≤ 6.00 | 5.00 to 6.00 |
| COCCn1cc(OCC(F)(F)F)c(C(=O)Nc2ccc(Oc3ccnc4cc(OC)c(OC)cc34)nc2)n1 [Compound 104] | ≤ 6.00 | ≤ 5.00 |
| COc1cc2nccc(Oc3ccc(NC(=O)c4nn(CCN)cc4OCC(F)(F)F)cn3)c2cc1OC [Compound 135] | ≤ 6.00 | ≤ 5.00 |
| CNCCOc1cn(C2CC2)nc1C(=O)Nc1ccc(Oc2ccnc3cc(OC)c(OC)cc23)cn1 [Compound 141] | ≤ 6.00 | ≤ 5.00 |
| COc1cc2nccc(Oc3ccc(NC(=O)c4nn(C5CCN(C)C5)cc4OCC(F)(F)F)cn3)c2cc1OC (stereo not drawn) [Compound 133] | ≤ 6.00 | 5.00 to 6.00 |
| COc1cc2nccc(Oc3ccc(NC(=O)c4nn(CC5COC5)cc4OCC(F)(F)F)cc3)c2cc1OC [Compound 101] | ≤ 6.00 | 5.00 to 6.00 |

| SMILES | pIC50 (CSF1R) | pIC50 (CSF1R (M-NFS-60 cells)) |
| --- | --- | --- |
| CNCCn1cc(OCC(F)(F)F)c(C(=O)Nc2ccc(Oc3ccnc4cc(OC)c(OC)cc34)c(C)c2)n1 [Compound 156] | ≤ 6.00 | 5.00 to 6.00 |
| COc1cc2nccc(Oc3ccc(NC(=O)c4nn(CCOC5CC5)cc4OCC(F)(F)F)c(F)c3)c2cc1OC [Compound 115] | 6.00 to 6.30 | 5.00 to 6.00 |
| COc1cc2nccc(Oc3ccc(NC(=O)c4nn(C5CCN(C)C5)cc4OCC(F)(F)F)cc3C)c2cc1OC (stereo not drawn) [Compound 98] | ≤ 6.00 | 5.00 to 6.00 |
| COc1cc2nccc(Oc3ccc(NC(=O)c4nn(CC5COC5)cc4OCC(F)(F)F)nc3)c2cc1OC [Compound 92] | > 6.30 | > 6.00 |
| COc1cc2nccc(Oc3ccc(NC(=O)c4nn(C5CC5)cc4OCCF)nc3)c2cc1OC [Compound 110] | > 6.30 | > 6.00 |
| CCCn1cc(OCC(F)F)c(C(=O)Nc2ccc(Oc3ccnc4cc(OC)c(OC)cc34)cn2)n1 [Compound 12] | > 6.30 | > 6.00 |
| COc1cc2nccc(Oc3ccc(NC(=O)c4nn(C5CCCC5)cc4OCC(F)(F)F)cn3)c2cc1OC [Compound 131] | ≤ 6.00 | 5.00 to 6.00 |
| COCCOc1cn(CC(C)O)nc1C(=O)Nc1ccc(Oc2ccnc3cc(OC)c(OC)cc23)cn1 (stereo not drawn) [Compound 150] | ≤ 6.00 | 5.00 to 6.00 |
| COc1cc2nccc(Oc3ccc(NC(=O)c4nn(C5CCNC5)cc4OCC(F)(F)F)cn3)c2cc1OC (stereo not drawn) [Compound 132] | ≤ 6.00 | ≤ 5.00 |
| CCCn1cc(OCCOC)c(C(=O)Nc2ccc(Oc3ccnc4cc(OC)c(OC)cc34)cn2)n1 [Compound 105] | > 6.30 | > 6.00 |
| COc1cc2nccc(Oc3ccc(NC(=O)c4n[nH]cc4OCC(F)(F)F)nc3)c2cc1OC [Compound 16] | > 6.30 | > 6.00 |
| COc1cc2nccc(Oc3ccc(NC(=O)c4nn(C5CCCC5)cc4OCC(F)(F)F)nn3)c2cc1OC [Compound 121] | > 6.30 | > 6.00 |
| CCCn1cc(OCC(F)(F)F)c(C(=O)Nc2ccc(Oc3ccnc4cc(OC)c(OC)cc34)c(C(F)(F)F)c2)n1 [Compound 114] | ≤ 6.00 | 5.00 to 6.00 |
| CCCn1cc(NCCC(F)(F)F)c(C(=O)Nc2ccc(Oc3ccnc4cc(OC)c(OC)cc34)cn2)n1 [Compound 158] | > 6.30 | 5.00 to 6.00 |
| COc1cc2nccc(Oc3ccc(NC(=O)c4nn(CCOC5CC5)cc4OCC(F)(F)F)cc3C)c2cc1OC [Compound 117] | > 6.30 | > 6.00 |
| COc1cc2nccc(Oc3ccc(NC(=O)c4nn(CCOC5CC5)cc4OCC(F)(F)F)nc3)c2cc1OC [Compound 153] | > 6.30 | > 6.00 |
| CCCn1cc(OCC2CNC2)c(C(=O)Nc2ccc(Oc3ccnc4cc(OC)c(OC)cc34)cn2)n1 [Compound 159] | ≤ 6.00 | ≤ 5.00 |
| CCn1cc(OCC(F)(F)F)c(C(=O)Nc2ccc(Oc3ccnc4cc(OC)c(OC)cc34)cn2)n1 [Compound 4] | > 6.30 | > 6.00 |
| CCCn1cc(OCC2COC2)c(C(=O)Nc2ccc(Oc3ccnc4cc(OC)c(OC)cc34)cn2)n1 [Compound 106] | > 6.30 | > 6.00 |
